In PubChem BioAssay AID1259407 (Chemical Carcinogenesis Research Information System (CCRIS), 2018):
Activity calls are given as the source filed them. The rule behind the calls is not given here.

System: CCRIS mutagenicity, Ames/micronucleus/aberration tests
Assay: CCRIS mutagenicity studies
[1] = Test System: AMES SALMONELLA TYPHIMURIUM, Strain/Indicator: TA100, Metabolic Activation: NONE, Method: STANDARD PLATE
[2] = Test System: AMES SALMONELLA TYPHIMURIUM, Strain/Indicator: TA100, Metabolic Activation: RAT, LIVER, S-9, AROCLOR 1254, Method: STANDARD PLATE

Q: Which results are given for N#CC(Br)Br?
A: mutagenic call (End Point: In vivo micronucleus, Test System: Peripheral blood normochromatic erythrocytes, Species: Mouse, Strain/Sex: B6C3F1/ Female, Route: Oral): inactive; negative; mutagenic call (End Point: In vivo micronucleus, Test System: Peripheral blood normochromatic erythrocytes, Species: Mouse, Strain/Sex: B6C3F1/ Male, Route: Oral): inactive; negative; mutagenic call (Test System: AMES SALMONELLA TYPHIMURIUM, Strain/Indicator: TA98, Metabolic Activation: NONE, Method: STANDARD PLATE): inactive; negative; mutagenic call (Test System: AMES SALMONELLA TYPHIMURIUM, Strain/Indicator: TA98, Metabolic Activation: RAT, LIVER, S-9, AROCLOR 1254, Method: STANDARD PLATE): inactive; negative; mutagenic call (Test System: AMES SALMONELLA TYPHIMURIUM, Strain/Indicator: TA100, Metabolic Activation: NONE, Method: FLUCTUATION TEST): inactive; negative; mutagenic call [1]: inactive; negative; mutagenic call (Test System: AMES SALMONELLA TYPHIMURIUM, Strain/Indicator: TA100, Metabolic Activation: RAT, LIVER, S-9, AROCLOR 1254, Method: FLUCTUATION TEST): inactive; negative; mutagenic call [2]: inactive; negative; mutagenic call (Test System: AMES SALMONELLA TYPHIMURIUM, Strain/Indicator: TA1535, Metabolic Activation: NONE, Method: STANDARD PLATE): inactive; negative; mutagenic call (Test System: AMES SALMONELLA TYPHIMURIUM, Strain/Indicator: TA1535, Metabolic Activation: RAT, LIVER, S-9, AROCLOR 1254, Method: STANDARD PLATE): inactive; negative; mutagenic call (Test System: Ames Salmonella typhimurium, Strain/Indicator: TA97, Metabolic Activation: Hamster, Liver, S-9, Aroclor 1254 (10%), Method: Preincubation): active; positive; mutagenic call (Test System: Ames Salmonella typhimurium, Strain/Indicator: TA97, Metabolic Activation: Hamster, Liver, S-9, Aroclor 1254 (30%), Method: Preincubation): inactive; negative; mutagenic call (Test System: Ames Salmonella typhimurium, Strain/Indicator: TA97, Metabolic Activation: None, Method: Preincubation): active; positive; mutagenic call (Test System: Ames Salmonella typhimurium, Strain/Indicator: TA97, Metabolic Activation: Rat, Liver, S-9, Aroclor 1254 (10%), Method: Preincubation): active; positive; mutagenic call (Test System: Ames Salmonella typhimurium, Strain/Indicator: TA97, Metabolic Activation: Rat, Liver, S-9, Aroclor 1254 (30%), Method: Preincubation): inactive; negative; mutagenic call (Test System: Ames Salmonella typhimurium, Strain/Indicator: TA98, Metabolic Activation: Hamster, Liver, S-9, Aroclor 1254 (10%), Method: Preincubation): inactive; negative; mutagenic call (Test System: Ames Salmonella typhimurium, Strain/Indicator: TA98, Metabolic Activation: Hamster, Liver, S-9, Aroclor 1254 (10 and 30%), Method: Preincubation): inactive; negative; mutagenic call (Test System: Ames Salmonella typhimurium, Strain/Indicator: TA98, Metabolic Activation: None, Method: Preincubation): inactive; negative; mutagenic call (Test System: Ames Salmonella typhimurium, Strain/Indicator: TA98, Metabolic Activation: Rat, Liver, S-9, Aroclor 1254 (10%), Method: Preincubation): inactive; negative; mutagenic call (Test System: Ames Salmonella typhimurium, Strain/Indicator: TA98, Metabolic Activation: Rat, Liver, S-9, Aroclor 1254 (10 and 30%), Method: Preincubation): inactive; negative; mutagenic call (Test System: Ames Salmonella typhimurium, Strain/Indicator: TA100, Metabolic Activation: Hamster, Liver, S-9, Aroclor 1254 (30%), Method: Preincubation): inactive; negative; mutagenic call (Test System: Ames Salmonella typhimurium, Strain/Indicator: TA100, Metabolic Activation: Rat, Liver, S-9, Aroclor 1254 (10%), Method: Preincubation): inactive; negative; mutagenic call (Test System: Ames Salmonella typhimurium, Strain/Indicator: TA1535, Metabolic Activation: None, Method: Preincubation): inactive; negative; mutagenic call (Test System: Ames Salmonella typhimurium, Strain/Indicator: TA1535, Metabolic Activation: Rat, Liver, S-9, Aroclor 1254 (30%), Method: Preincubation): inactive; negative; mutagenic call (Test System: Ames Salmonella typhimurium, Strain/Indicator: TA1537, Metabolic Activation: Hamster, Liver, S-9, Aroclor 1254 (30%), Method: Preincubation): inactive; negative; mutagenic call (Test System: Ames Salmonella typhimurium, Strain/Indicator: TA1537, Metabolic Activation: None, Method: Preincubation): inactive; negative; mutagenic call (Test System: Ames Salmonella typhimurium, Strain/Indicator: TA1537, Metabolic Activation: Rat, Liver, S-9, Aroclor 1254 (10%), Method: Preincubation): inactive; negative; mutagenic call (Test System: Ames Salmonella typhimurium, Strain/Indicator: TA1538, Metabolic Activation: None, Method: Preincubation): inactive; negative; mutagenic call (Test System: E. coli, Strain/Indicator: WPM uvrA/pKM101, Metabolic Activation: Hamster, Liver, S-9, Aroclor 1254 (10%), Method: Preincubation): active; positive; mutagenic call (Test System: E. coli, Strain/Indicator: WPM uvrA/pKM101, Metabolic Activation: None, Method: Preincubation): inactive; negative; mutagenic call (Test System: E. coli, Strain/Indicator: WPM uvrA/pKM101, Metabolic Activation: Rat, Liver, S-9, Aroclor 1254 (10%), Method: Preincubation): inactive; negative

Q: For NN1C(=O)c2ccccc2C1=O, which mutagenic call (Test System: AMES SALMONELLA TYPHIMURIUM, Strain/Indicator: TA97A, Metabolic Activation: NONE, Method: STANDARD PLATE) is on record?
A: inactive; negative

Q: And the mutagenic call (Test System: AMES SALMONELLA TYPHIMURIUM, Strain/Indicator: TA97A, Metabolic Activation: RAT, LIVER, S-9, AROCLOR 1254, Method: STANDARD PLATE)?
A: inactive; negative

Q: And the mutagenic call [1]?
A: inactive; negative

Q: What about the mutagenic call [2] of the same molecule?
A: inactive; negative

Q: And the mutagenic call (Test System: AMES SALMONELLA TYPHIMURIUM, Strain/Indicator: TA102, Metabolic Activation: NONE, Method: STANDARD PLATE)?
A: inactive; negative

Q: And the mutagenic call (Test System: AMES SALMONELLA TYPHIMURIUM, Strain/Indicator: TA102, Metabolic Activation: RAT, LIVER, S-9, AROCLOR 1254, Method: STANDARD PLATE)?
A: inactive; negative

Q: What about the mutagenic call (Test System: AMES SALMONELLA TYPHIMURIUM, Strain/Indicator: TA104, Metabolic Activation: NONE, Method: STANDARD PLATE) of the same molecule?
A: inactive; negative

Q: What about the mutagenic call (Test System: AMES SALMONELLA TYPHIMURIUM, Strain/Indicator: TA104, Metabolic Activation: RAT, LIVER, S-9, AROCLOR 1254, Method: STANDARD PLATE) of the same molecule?
A: inactive; negative

Q: Which mutagenic call (End Point: IN VITRO CHROMOSOMAL ABERRATIONS, Test System: CHINESE HAMSTER OVARY CELLS, Metabolic Activation: NONE) does the source give for Brc1ccccc1 here?
A: inactive; negative

Q: What about the mutagenic call (End Point: IN VITRO CHROMOSOMAL ABERRATIONS, Test System: CHINESE HAMSTER OVARY CELLS, Metabolic Activation: RAT, LIVER, S-9, AROCLOR 1254) of the same molecule?
A: inactive; negative

Q: And the mutagenic call (Test System: AMES SALMONELLA TYPHIMURIUM, Strain/Indicator: TA98, Metabolic Activation: HAMSTER, LIVER, S-9, AROCLOR 1254, Method: PREINCUBATION)?
A: inactive; negative

Q: What about the mutagenic call (Test System: AMES SALMONELLA TYPHIMURIUM, Strain/Indicator: TA98, Metabolic Activation: NONE, Method: PREINCUBATION) of the same molecule?
A: inactive; negative

Q: And the mutagenic call (Test System: AMES SALMONELLA TYPHIMURIUM, Strain/Indicator: TA98, Metabolic Activation: RAT, LIVER, S-9, AROCLOR 1254, Method: PREINCUBATION)?
A: inactive; negative

Q: And the mutagenic call (Test System: AMES SALMONELLA TYPHIMURIUM, Strain/Indicator: TA100, Metabolic Activation: HAMSTER, LIVER, S-9, AROCLOR 1254, Method: PREINCUBATION)?
A: inactive; negative

Q: And the mutagenic call (Test System: AMES SALMONELLA TYPHIMURIUM, Strain/Indicator: TA100, Metabolic Activation: NONE, Method: PREINCUBATION)?
A: inactive; negative

Q: What about the mutagenic call (Test System: AMES SALMONELLA TYPHIMURIUM, Strain/Indicator: TA100, Metabolic Activation: RAT, LIVER, S-9, AROCLOR 1254, Method: PREINCUBATION) of the same molecule?
A: inactive; negative

Q: What about the mutagenic call (Test System: AMES SALMONELLA TYPHIMURIUM, Strain/Indicator: TA1535, Metabolic Activation: HAMSTER, LIVER, S-9, AROCLOR 1254, Method: PREINCUBATION) of the same molecule?
A: inactive; negative

Q: What about the mutagenic call (Test System: AMES SALMONELLA TYPHIMURIUM, Strain/Indicator: TA1535, Metabolic Activation: NONE, Method: PREINCUBATION) of the same molecule?
A: inactive; negative

Q: And the mutagenic call (Test System: AMES SALMONELLA TYPHIMURIUM, Strain/Indicator: TA1535, Metabolic Activation: RAT, LIVER, S-9, AROCLOR 1254, Method: PREINCUBATION)?
A: inactive; negative

Q: And the mutagenic call (Test System: AMES SALMONELLA TYPHIMURIUM, Strain/Indicator: TA1537, Metabolic Activation: HAMSTER, LIVER, S-9, AROCLOR 1254, Method: PREINCUBATION)?
A: inactive; negative

Q: What about the mutagenic call (Test System: AMES SALMONELLA TYPHIMURIUM, Strain/Indicator: TA1537, Metabolic Activation: NONE, Method: PREINCUBATION) of the same molecule?
A: inactive; negative

Q: What about the mutagenic call (Test System: AMES SALMONELLA TYPHIMURIUM, Strain/Indicator: TA1537, Metabolic Activation: RAT, LIVER, S-9, AROCLOR 1254, Method: PREINCUBATION) of the same molecule?
A: inactive; negative

Q: How did the mutagenic call (Test System: AMES SALMONELLA TYPHIMURIUM, Strain/Indicator: TA98, Metabolic Activation: RAT LIVER, S-9, CHLOROPHENE, Method: STANDARD PLATE (COMPOUND HEATED AT 250 DEGREES CELSIUS FOR 20 MIN)) turn out when CC(N)C(=O)O (centres undefined) was run?
A: inactive; negative
